{"source": "patent US8992892B2", "about": "“Use of 1-(2,4-dihydroxy-phenyl)-3-(3-hydroxy-4-methoxy-phenyl)-propan-1-one” (SYMRISE AG, priority 2010, dated 2015)", "assay_type_in_all_cases": "in vivo", "key": {"[1]": {"assay": "Bitter reduction of a caffeine solution, rated by a group of experts", "excerpt": "In order to quantify the decrease (i.e. the masking or reduction) in bitter impression in a specimen, the bitterness of a 500 ppm caffeinated solution was compared by a group of experts in each case with a specimen containing 500 ppm caffeine and also various concentrations of deoxy hesperetin dihydrochalcone (I) (rating: 1 [not bitter] to 10 [extremely bitter]).\nFor the assessment, i.e. calculation of the reduction (in %) of the bitter impression in each case the average values of the assessments of the group of experts for the caffeinated solution and the specimen to be compared containing caffeine and a substance to be assessed were used. 2,4-dihydroxybenzoic acid (2,4-DHB) was used here for comparison (reference) in accordance with U.S. Pat. No. 5,643,941."}, "[2]": {"assay": "Intensification of the sweet impression of a sugar solution, rated by a group of experts", "design": "key to Sweet impression (1-10) Specimen (Sucrose + (I)) / Sweet impression (1-10) Specimen (sucrose + substance): 1 = not sweet, 10 = extremely sweet", "excerpt": "In order to quantify the intensification of the sweet impression, in each case the sweetness of a 5% sucrose solution was compared by a group of experts with a specimen containing 5% sucrose and 10 ppm, 25 ppm, 50 ppm or 75 ppm of the deoxy hesperetin dihydrochalcone (I) to be used according to the invention (rating: 1 [not sweet] to 10 [extremely sweet]).\nFor the assessment, i.e. calculation of the intensification (in %) of the sweet impression in each case the average values of the assessments of the group of experts for the sucrose solution and the specimen for comparison containing sucrose and deoxy hesperetin dihydrochalcone (I) were used.\nIn order to quantify the intensification of the sweetness impression, in each case the sweetness of a 5% sucrose solution was compared by a group of experts with a specimen containing 5% sucrose and 30 ppm or 50 ppm of a deoxy dihydrochalcone ((rating: 1 [not sweet] to 10 [extremely sweet])).\nFor the assessment, i.e. calculation of the intensification (in %) of the sweet impression in each case the average values of the assessments of the group of experts for the sucrose solution and the specimen containing sucrose and deoxy dihydrochalcone for comparison were used."}, "[3]": {"assay": "Sucrose equivalence in a 5% sucrose solution with (I), panelists", "conditions": "for Sucrose equivalence in a 5% sucrose solution with (I), Calculation (5 + x) %: purely additive expected value; for synergy or synergistic additional effect: determined vs theoretically expected value", "excerpt": "(§1) The panelists were asked to test each solution of the compound (I) in water against the sucrose series and to rate it according is degree of sweetness (sucrose equivalence). From the results produced by the panelists it was possible to determine the inherent sweetness of the deoxy hesperetin dihydrochalcone (I) for the above-mentioned concentrations. Apart from the sucrose equivalence of the solutions of the compound (I) in water (i.e. without sucrose) the sucrose equivalence in a 5% sucrose solution was also determined with a corresponding quantity of compound (I).\nIn all the cases tested a synergistic intensification in sweetness was found when an in itself not sweet concentration of deoxy hesperetin dihydrochalcone (I) was added. So it could in theory be expected that a 5% sucrose solution (i.e. a sucrose solution which sensorially by definition corresponds to 5% sucrose equivalents), containing 10 ppm, 25 ppm, 50 ppm or 75 ppm deoxy hesperetin dihydrochalcone (I), through a purely additive effect of the inherent sweetness of deoxy hesperetin dihydrochalcone (I) (see the sucrose equivalence determined in water) results in a sweetness of approximately 5.13%, 5.33%, 5.58% and again 5.58% sucrose equivalents. […] This corresponds in view of the purely theoretically expected values to a synergy or a synergistic additional effect of approximately 25%, 29%, 47% or 27%. It is noticeable that at the maximum tested concentration of 75 ppm—as might be expected—neither the maximum absolute nor the maximum synergistic intensification was measured."}, "[4]": {"assay": "Inherent sweetness in water against a sucrose concentration series (sucrose equivalence), panelists", "excerpt": "as §1"}, "[5]": {"assay": "Bitter reduction of a salicin solution, rated by a group of experts", "conditions": "250 ppm salicin + 50 ppm (I)", "excerpt": "(§2) In order to quantify the decrease (i.e. the masking or reduction) in the bitter impression in a specimen, the bitterness of a solution containing either 100 ppm naringin or 250 ppm salicin or 500 ppm epigallocatechin gallate and 75 ppm ascorbic acid was compared by a group of experts in each case with a specimen containing either 100 ppm naringin or 250 ppm salicin or 500 ppm epigallocatechin gallate and 75 ppm ascorbic acid and additionally 50 ppm deoxy hesperetin dihydrochalcone (I) (rating: 1 [not bitter] to 10 [extremely bitter]).\n(§3) For the assessment, i.e. calculation of the reduction (in %) of the bitter impression in each case the average values of the assessments of the group of experts for the respective bitter substance solution and the bitter substance solution also containing 50 ppm deoxy hesperetin dihydrochalcone (I) were used."}, "[6]": {"assay": "Bitter reduction of an epigallocatechin gallate solution, rated by a group of experts", "conditions": "500 ppm epigallocatechin gallate + 75 ppm ascorbic acid + 50 ppm (I)", "excerpt": "as §2, §3"}, "[7]": {"assay": "Bitter reduction of a naringin solution, rated by a group of experts", "conditions": "100 ppm naringin + 50 ppm (I)", "excerpt": "as §2, §3"}, "[8]": {"assay": "Sucrose equivalence in a 5% sucrose solution with (I), panelists", "conditions": "0.0100 % by weight (I); purely additive expected value"}, "[9]": {"conditions": "100 ppm substance + 500 ppm caffeine vs caffeinated solution"}, "[10]": {"conditions": "100 ppm substance + 500 ppm caffeine, rating 1 [not bitter] to 10 [extremely bitter]"}, "[11]": {"conditions": "Application example 4: 50 ppm deoxy dihydrochalcone + 5% sucrose vs sucrose solution"}, "[12]": {"conditions": "Application example 4: 50 ppm deoxy dihydrochalcone + 5% sucrose, rating 1-10"}}, "data": [{"smiles": "O=C(O)c1ccc(O)cc1O", "note": "[2,4-DHB, 2,4-dihydroxybenzoic acid, reference compound]", "values": [{"measurement": "Reduction in bitter impression", "setting": "[1]; [9]", "result": 3, "unit": "%"}, {"measurement": "Bitter impression (1-10) Specimen (Caffeine + substance)", "setting": "[1]; [10]", "result": "5.0 ± 1.0"}]}, {"smiles": "COc1cc(CCC(=O)c2ccc(O)cc2O)ccc1O", "note": "[2′,4,4′-trihydroxy-3-methoxy dihydrochalcone, reference compound]", "values": [{"measurement": "Intensification of the sweet effect", "setting": "[2]; [11]", "result": 8, "unit": "%"}, {"measurement": "Sweet impression (1-10) Specimen (sucrose + substance)", "setting": "[2]; [12]", "result": "5.6 ± 1.4"}]}, {"smiles": "O=C(CCc1ccc(O)cc1)c1ccc(O)cc1O", "note": "[davidigenin (1), davidigenin, reference compound]", "values": [{"measurement": "Intensification of the sweet effect", "setting": "[2]; Application example 4: 30 ppm deoxy dihydrochalcone + 5% sucrose vs sucrose solution", "result": 2, "unit": "%"}, {"measurement": "Sweet impression (1-10) Specimen (sucrose + substance)", "setting": "[2]; Application example 4: 30 ppm deoxy dihydrochalcone + 5% sucrose, rating 1-10", "result": "5.7 ± 1.4"}]}, {"smiles": "COc1ccc(CCC(=O)c2ccc(O)cc2O)cc1O", "note": "[deoxy hesperetin dihydrochalcone (I), 1-(2,4-dihydroxy-phenyl)-3-(3-hydroxy-4-methoxy-phenyl)-propan-1-one]", "values": [{"measurement": "Sucrose equivalence in a 5% sucrose solution with (I), Determination", "setting": "[3]; 0.0010 % by weight (10 ppm) (I) in 5% sucrose", "result": 6.4, "unit": "%"}, {"measurement": "Sucrose equivalence in a 5% sucrose solution with (I), Determination", "setting": "[3]; 0.0025 % by weight (25 ppm) (I) in 5% sucrose", "result": 6.9, "unit": "%"}, {"measurement": "Sucrose equivalence in a 5% sucrose solution with (I), Calculation (5 + x) %", "setting": "[3]; 0.0025 % by weight (25 ppm) (I)", "result": 5.33, "unit": "%"}, {"measurement": "Sucrose equivalence in a 5% sucrose solution with (I), Determination", "setting": "[3]; 0.0050 % by weight (50 ppm) (I) in 5% sucrose", "result": 8.2, "unit": "%"}, {"measurement": "Sucrose equivalence in a 5% sucrose solution with (I), Calculation (5 + x) %", "setting": "[3]; 0.0050 % by weight (50 ppm) (I)", "result": 5.58, "unit": "%"}, {"measurement": "Sucrose equivalence in a 5% sucrose solution with (I), Determination", "setting": "[3]; 0.0075 % by weight (75 ppm) (I) in 5% sucrose", "result": 7.1, "unit": "%"}, {"measurement": "Sucrose equivalence in a 5% sucrose solution with (I), Calculation (5 + x) %", "setting": "[3]; 0.0075 % by weight (75 ppm) (I)", "result": 5.58, "unit": "%"}, {"measurement": "synergy or synergistic additional effect", "setting": "[3]; 10 ppm (I) in 5% sucrose", "result": "approximately 25%"}, {"measurement": "synergy or synergistic additional effect", "setting": "[3]; 25 ppm (I) in 5% sucrose", "result": "~29", "unit": "%"}, {"measurement": "synergy or synergistic additional effect", "setting": "[3]; 50 ppm (I) in 5% sucrose", "result": "~47", "unit": "%"}, {"measurement": "synergy or synergistic additional effect", "setting": "[3]; 75 ppm (I) in 5% sucrose", "result": "~27", "unit": "%"}, {"measurement": "Intensification of the sweet impression", "setting": "[2]; 10 ppm (I) + 5% sucrose vs sucrose solution", "result": 21, "unit": "%"}, {"measurement": "Sweet impression (1-10) Specimen (Sucrose + (I))", "setting": "[2]; 10 ppm (I) + 5% sucrose, rating 1 [not sweet] to 10 [extremely sweet]", "result": "6.4 ± 1.6"}, {"measurement": "Intensification of the sweet impression", "setting": "[2]; 25 ppm (I) + 5% sucrose vs sucrose solution", "result": 42, "unit": "%"}, {"measurement": "Sweet impression (1-10) Specimen (Sucrose + (I))", "setting": "[2]; 25 ppm (I) + 5% sucrose, rating 1-10", "result": "6.9 ± 1.9"}, {"measurement": "Intensification of the sweet impression", "setting": "[2]; 50 ppm (I) + 5% sucrose vs sucrose solution", "result": 48, "unit": "%"}, {"measurement": "Sweet impression (1-10) Specimen (Sucrose + (I))", "setting": "[2]; 50 ppm (I) + 5% sucrose, rating 1-10", "result": "8.2 ± 0.9"}, {"measurement": "Intensification of the sweet impression", "setting": "[2]; 75 ppm (I) + 5% sucrose vs sucrose solution", "result": 21, "unit": "%"}, {"measurement": "Sweet impression (1-10) Specimen (Sucrose + (I))", "setting": "[2]; 75 ppm (I) + 5% sucrose, rating 1-10", "result": "7.1 ± 1.7"}, {"measurement": "Intensification of the sweet effect", "setting": "[2]; [11]", "result": 48, "unit": "%"}, {"measurement": "Sweet impression (1-10) Specimen (sucrose + substance)", "setting": "[2]; [12]", "result": "8.2 ± 0.9"}, {"measurement": "sweetness-intensifying effect", "setting": "[2]; own investigations", "result": "strong, sweetness-intensifying effect"}, {"measurement": "sweetness intensifying effect compared with structurally related substances (1)-(3)", "setting": "[2]; see Application example 4", "result": "clearly the most powerful compound"}, {"measurement": "Reduction in bitter impression", "setting": "[1]; 10 ppm substance + 500 ppm caffeine vs caffeinated solution", "result": 2, "unit": "%"}, {"measurement": "Bitter impression (1-10) Specimen (Caffeine + substance)", "setting": "[1]; 10 ppm substance + 500 ppm caffeine, rating 1-10", "result": "4.8 ± 1.6"}, {"measurement": "Reduction in bitter impression", "setting": "[1]; 25 ppm substance + 500 ppm caffeine vs caffeinated solution", "result": 26, "unit": "%"}, {"measurement": "Bitter impression (1-10) Specimen (Caffeine + substance)", "setting": "[1]; 25 ppm substance + 500 ppm caffeine, rating 1-10", "result": "3.8 ± 1.5"}, {"measurement": "Reduction in bitter impression", "setting": "[1]; 50 ppm substance + 500 ppm caffeine vs caffeinated solution", "result": 11, "unit": "%"}, {"measurement": "Bitter impression (1-10) Specimen (Caffeine + substance)", "setting": "[1]; 50 ppm substance + 500 ppm caffeine, rating 1-10", "result": "3.7 ± 1.6"}, {"measurement": "Reduction in bitter impression", "setting": "[1]; [9]", "result": 3, "unit": "%"}, {"measurement": "Bitter impression (1-10) Specimen (Caffeine + substance)", "setting": "[1]; [10]", "result": "4.9 ± 1.9"}, {"measurement": "Determination of the sucrose equivalence in water (without sucrose)", "setting": "[4]; 0.0010 % by weight (I) in water", "result": 0.13, "unit": "%"}, {"measurement": "Determination of the sucrose equivalence in water (without sucrose)", "setting": "[4]; 0.0025 % by weight (I) in water", "result": 0.33, "unit": "%"}, {"measurement": "Determination of the sucrose equivalence in water (without sucrose)", "setting": "[4]; 0.0050 % by weight (I) in water", "result": 0.58, "unit": "%"}, {"measurement": "Determination of the sucrose equivalence in water (without sucrose)", "setting": "[4]; 0.0075 % by weight (I) in water", "result": 0.58, "unit": "%"}, {"measurement": "Determination of the sucrose equivalence in water (without sucrose)", "setting": "[4]; 0.0100 % by weight (I) in water", "result": 0.79, "unit": "%"}, {"measurement": "own sweetness of the compound", "setting": "[4]; own investigations", "result": "not in itself particularly sweet"}, {"measurement": "Reduction in bitter impression", "setting": "[5]", "result": 15, "unit": "%"}, {"measurement": "Bitter impression (1-10) Bitter substance + (I)", "setting": "[5]; rating 1-10", "result": "6.5 ± 2.2"}, {"measurement": "Reduction in bitter impression", "setting": "[6]", "result": 10, "unit": "%"}, {"measurement": "Bitter impression (1-10) Bitter substance + (I)", "setting": "[6]; rating 1-10", "result": "6.1 ± 2.9"}, {"measurement": "Reduction in bitter impression", "setting": "[7]", "result": 7, "unit": "%"}, {"measurement": "Bitter impression (1-10) Bitter substance + (I)", "setting": "[7]; rating 1-10", "result": "6.4 ± 2.4"}, {"measurement": "Sucrose equivalence in a 5% sucrose solution with (I), Calculation (5 + x) %", "setting": "[8]", "result": 5.79, "unit": "%"}]}, {"smiles": "COc1ccc(CCC(=O)c2ccc(O)cc2O)cc1", "note": "[reference compound]", "values": [{"measurement": "Intensification of the sweet effect", "setting": "[2]; [11]", "result": 12, "unit": "%"}, {"measurement": "Sweet impression (1-10) Specimen (sucrose + substance)", "setting": "[2]; [12]", "result": "6.1 ± 1.8"}]}]}
